“And” between values parts separate entries of the source, which are not always exact repeats. Identical values can stand only once.
Assays:
[1] = molecular target: T1, Thromboxane-A synthase (Homo sapiens) (UniProt P24557); assay: Compound was evaluated for inhibition of TXA2 synthase by measuring collagen stimulated TXB2 production in the blood samples after 2 hr time at a dose of 0.05 mg/kg; type: functional, organism-based; parameters: dose 0.05 mg/kg; conditions: Canis lupus familiaris
T1 sequence (whole entry): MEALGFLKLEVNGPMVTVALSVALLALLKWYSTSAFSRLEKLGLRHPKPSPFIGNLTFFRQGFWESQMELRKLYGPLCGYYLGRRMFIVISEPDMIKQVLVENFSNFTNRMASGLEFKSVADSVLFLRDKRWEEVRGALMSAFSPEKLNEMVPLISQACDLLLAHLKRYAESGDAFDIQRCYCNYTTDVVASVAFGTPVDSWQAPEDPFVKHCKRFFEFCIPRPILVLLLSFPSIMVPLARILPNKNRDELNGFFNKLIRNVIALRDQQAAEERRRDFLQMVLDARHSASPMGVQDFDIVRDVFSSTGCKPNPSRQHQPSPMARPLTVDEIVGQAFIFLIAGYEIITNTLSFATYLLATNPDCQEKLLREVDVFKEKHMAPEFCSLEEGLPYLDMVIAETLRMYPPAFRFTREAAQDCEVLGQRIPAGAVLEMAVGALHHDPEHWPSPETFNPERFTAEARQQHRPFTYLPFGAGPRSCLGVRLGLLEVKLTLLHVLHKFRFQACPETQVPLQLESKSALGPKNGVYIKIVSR

[2] = system: Canis familiaris; assay: Compound was tested for plasma concentration ratio at 8 hr in conscious dogs at specified time intervals at a dose of 0.05 mg/kg.; type: functional, Canis lupus familiaris
[3] = molecular target: T1, Thromboxane-A synthase (Homo sapiens); assay: Compound was evaluated for inhibition of TXA2 synthase by measuring collagen stimulated TXB2 production in the blood samples after 8 hr time at a dose of 0.05 mg/kg; type: functional, organism-based; parameters: dose 0.05 mg/kg; conditions: Canis lupus familiaris
[4] = molecular target: T2, Thromboxane A2 receptor (Homo sapiens, UniProt P21731); assay: Thromboxane (TXA2) receptor antagonist activity using human platelet; type: functional; conditions: for Kb: read-out: pA2 (converted)
T2 sequence (P21731 whole entry): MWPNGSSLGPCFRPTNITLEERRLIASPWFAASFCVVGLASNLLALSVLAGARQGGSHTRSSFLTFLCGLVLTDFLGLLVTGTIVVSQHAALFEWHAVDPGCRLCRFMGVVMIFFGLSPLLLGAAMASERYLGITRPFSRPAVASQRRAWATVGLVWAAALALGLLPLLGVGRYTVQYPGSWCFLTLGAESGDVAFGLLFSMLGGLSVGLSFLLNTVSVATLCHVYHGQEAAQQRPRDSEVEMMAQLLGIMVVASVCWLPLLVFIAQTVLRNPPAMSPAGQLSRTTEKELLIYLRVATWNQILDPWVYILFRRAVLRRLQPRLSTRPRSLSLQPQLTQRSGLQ

[5] = molecular target: T3, Thromboxane-A synthase (Homo sapiens, UniProt P24557); assay: Compound was tested for thromboxane TXA2 synthase inhibitory activity using human platelet
T3 sequence (P24557 whole entry): T1 sequence (whole entry)

[6] = system: Canis familiaris; assay: Compound was tested for plasma concentration ratio at 2 hr in conscious dogs at specified time intervals at a dose of 0.05 mg/kg.; type: functional, Canis lupus familiaris
[7] = system: Canis familiaris; assay: Compound was tested ex vivo for plasma concentration ratio at 8 hr in conscious dogs at specified time intervals at a dose of 0.05 mg/kg.; type: functional, Canis lupus familiaris
[8] = system: Canis familiaris; assay: Compound was tested ex vivo for plasma concentration ratio at 2 hr in conscious dogs at specified time intervals at a dose of 0.05 mg/kg.; type: functional, Canis lupus familiaris
[9] = system: Canis familiaris; assay: Compound was tested for plasma concentration ratio at 2 hr in conscious dogs at specified time intervals at a dose of 1.0 mg/kg.; type: functional, Canis lupus familiaris
[10] = molecular target: T1, Thromboxane-A synthase (Homo sapiens); assay: (§1) Compound was evaluated for inhibition of TXA2 synthase by measuring collagen stimulated TXB2 production in the blood samples after 8 hr time at a dose of 1.0 mg/kg; type: functional, organism-based; parameters: dose 1 mg/kg; conditions: Canis lupus familiaris
[11] = molecular target: T1, Thromboxane-A synthase (Homo sapiens); assay: Compound was evaluated for inhibition of TXA2 synthase by measuring collagen stimulated TXB2 production in the blood samples after 2 hr time at a dose of 1.0 mg/kg; type: functional, organism-based; parameters: dose 1 mg/kg; conditions: Canis lupus familiaris
[12] = molecular target: T1, Thromboxane-A synthase (Homo sapiens); assay: as §1; type: functional, organism-based; parameters: dose 1 mg/kg; conditions: Canis lupus familiaris; remark: listed apart in the source
[13] = system: Canis familiaris; assay: Compound was tested for plasma concentration ratio at 8 hr in conscious dogs at specified time intervals at a dose of 1.0 mg/kg.; type: functional, Canis lupus familiaris

N#Cc1ccc([C@H]2OC[C@@H](C/C=C\CCC(=O)Oc3ccccc3OC(=O)CC/C=C\C[C@@H]3CO[C@H](c4ccc(C#N)cc4)O[C@@H]3c3ccccc3O)[C@@H](c3cccnc3)O2)cc1
inhibition [1]: 68% | Ratio [2]: 283 | inhibition [3]: < 50% | Kb [4]: 10 µM | IC50 [5]: > 10 µM | Ratio [6]: 587

N#Cc1ccc([C@H]2OC[C@@H](C/C=C\CCC(=O)O)[C@@H](c3ccccc3O)O2)cc1
Ratio [7]: 35 | Ratio [8]: 60 | inhibition [1]: > 50% | inhibition [3]: > 50% | Kb [4]: 0.00501 µM | IC50 [5]: > 10 µM

N#Cc1ccc([C@H]2OC[C@@H](C/C=C\CCC(=O)Oc3ccccc3OC(=O)CC/C=C\C[C@@H]3CO[C@H](c4ccccc4Cl)O[C@@H]3c3ccccc3O)[C@@H](c3cccnc3)O2)cc1 (stereo in doubt; 15) [listing 1 of 2 here]
Ratio ([2]; 0.05 mg/kg): 170 | pA2 [4]: 5 | IC50 [5]: > 10 µM | Ratio ([6]; 0.05 mg/kg): 140

N#Cc1ccc([C@H]2OC[C@@H](C/C=C\CCC(=O)OCCOC(=O)CC/C=C\C[C@@H]3CO[C@H](c4ccc(C#N)cc4)O[C@@H]3c3ccccc3O)[C@@H](c3cccnc3)O2)cc1
Kb [4]: > 10 µM | IC50 [5]: > 10 µM

O=C(O)CC/C=C\C[C@@H]1CO[C@H](c2ccccc2Cl)O[C@@H]1c1ccccc1O
inhibition [1]: > 50% | inhibition [3]: > 50% | IC50 [5]: > 10 µM

N#Cc1ccc([C@H]2OC[C@@H](C/C=C\CCC(=O)OCCCCCCOC(=O)CC/C=C\C[C@@H]3CO[C@H](c4ccc(C#N)cc4)O[C@@H]3c3ccccc3O)[C@@H](c3cccnc3)O2)cc1
Kb [4]: 10 µM | IC50 [5]: > 10 µM

N#Cc1ccc([C@H]2OC[C@@H](C/C=C\CCC(=O)O)[C@@H](c3cccnc3)O2)cc1
Ratio [9]: 1.4 | inhibition [10]: 84% | inhibition [11]: 97% and 84% | inhibition [12]: 93% | Kb [4]: 1.26 µM | IC50 [5]: 0.02 µM | Ratio [13]: 1.3

N#Cc1ccc([C@H]2OC[C@@H](C/C=C\CCC(=O)NCCCCCCNC(=O)CC/C=C\C[C@@H]3CO[C@H](c4ccc(C#N)cc4)O[C@@H]3c3ccccc3O)[C@@H](c3cccnc3)O2)cc1
Kb [4]: 10 µM | IC50 [5]: > 10 µM

N#Cc1ccc([C@H]2OC[C@@H](C/C=C\CCC(=O)Oc3ccccc3OC(=O)CC/C=C\C[C@@H]3CO[C@H](c4ccccc4Cl)O[C@@H]3c3ccccc3O)[C@@H](c3cccnc3)O2)cc1 (stereo in doubt; 16 (-)) [listing 1 of 2 here]
Ratio ([2]; 0.05 mg/kg): 150 | Kb [4]: 10 µM | IC50 [5]: > 10 µM | Ratio ([6]; 0.05 mg/kg): 35

N#Cc1ccc([C@H]2OC[C@@H](C/C=C\CCC(=O)Oc3ccccc3OC(=O)CC/C=C\C[C@@H]3CO[C@H](c4ccccc4Cl)O[C@@H]3c3ccccc3O)[C@@H](c3cccnc3)O2)cc1 (stereo in doubt; 16 (-)) [listing 2 of 2 here]
inhibition [1]: 31% | inhibition [3]: 64%

N#Cc1ccc([C@H]2OC[C@@H](C/C=C\CCC(=O)Oc3ccccc3OC(=O)CC/C=C\C[C@@H]3CO[C@H](c4ccccc4Cl)O[C@@H]3c3ccccc3O)[C@@H](c3cccnc3)O2)cc1 (stereo in doubt; 15) [listing 2 of 2 here]
inhibition [1]: 54% | inhibition [3]: 57%

N#Cc1ccc([C@H]2OC[C@@H](C/C=C\CCC(=O)NCCNC(=O)CC/C=C\C[C@@H]3CO[C@H](c4ccc(C#N)cc4)O[C@@H]3c3ccccc3O)[C@@H](c3cccnc3)O2)cc1
Kb [4]: 10 µM | IC50 [5]: > 10 µM

N#Cc1ccc([C@H]2OC[C@@H](C/C=C\CCC(=O)Oc3ccc(OC(=O)CC/C=C\C[C@@H]4CO[C@H](c5ccc(C#N)cc5)O[C@@H]4c4ccccc4O)cc3)[C@@H](c3cccnc3)O2)cc1
Kb [4]: 10 µM | IC50 [5]: > 10 µM

From ChEMBL document CHEMBL1129776, “Design of dual-acting thromboxane antagonist-synthase inhibitors by a mutual prodrug approach” (Bioorg Med Chem Lett, 1996)
